Earlier results as cited in patent US7968511B2, “Combination therapy with glatiramer acetate and mitoxantrone for the treatment of multiple sclerosis” (Teva Pharmaceutical Industries, Ltd., priority 2003, dated 2011).

System: multiple sclerosis (MS)
Details: daily subcutaneous injections, 20 mg/injection

L-glutamic acid polymer with L-alanine, L-lysine and L-tyrosine, acetate (salt) [glatiramer acetate]
reduce: appearance of "black holes" | appearance of new lesions by magnetic resonance imaging (MRI) | progression of disability | relapse rates
